We go through four molecules from patent US20120149741A1, “TREATMENT OF DUCHENNE MUSCULAR DYSTROPHY” (Biomarin IGA Limited, priority 2007, published 2012).

Molecules are shown by their SMILES.

The assay deals with Utrophin A promoter linked to a luciferase reporter gene in mdx mouse H2K cells. The experiment in a line: Luciferase reporter assay (murine H2K cells). It is filed as cell-based. Particulars: luciferase level, H2K/mdx/Utro A reporter cells, final concentration of 10 μM, 48 hrs. As for the experimental part:
The cell line used for the screen is an immortalized mdx mouse H2K cell line that has been stably transfected with a plasmid containing fragment of the Utrophin A promoter including the first untranslated exon linked to a luciferase reporter gene (see FIG. 1).
Under conditions of low temperature and interferon containing media, the cells remain as myoblasts. These are plated into 96 well plates and cultured in the presence of compound for three days. The level of luciferase is then determined by cell lysis and reading of the light output from the expressed luciferase gene utilising a plate luminometer.
The H2K/mdx/Utro A reporter cell line was passaged twice a week until ≦30% confluent. The cells were grown at 33° C. in the presence of 10% CO2.
To remove the myoblasts for platting, they were incubated with Trypsin/EDTA until the monolayer started to detach.
• DMEM Gibco 41966 • 20% FCS • 1% Pen/Strep • 1% glutamine • 10 mls Chick embryo extract • Interferon (1276 905 Roche) Add fresh 10 μl/50 mls medium
The H2K/mdx/Utro A reporter cell line cells were plated out into 96 well plates (Falcon 353296, white opaque) at a density of approximately 5000 cells/well in 190 μl normal growth medium. The plates were then incubated at 33° C. in the presence of 10% CO2 for 24 hrs.
Compounds were dosed by adding 10 μl of diluted compound to each well giving a final concentration of 10 μM. The plates were then incubated for a further 48 hrs.
Cells were then lysed in situ following the manufacture's protocols (Promega Steady-Glo Luciferase Assay System (E2520), then counted for 10 seconds using a plate luminometer (Victor1420).
Compounds for screening were stored at −20° C. as 10 mM stocks in 100% DMSO until required.
Background: In a reporter assay the amount or activity of a reporter protein is the signal.
Consider `CCS(=O)(=O)c1ccc2nn(-c3ccc4ccccc4c3)nc2c1` [Example 4, 5-(ethylsulfonyl)-2-(naphthalen-2′-yl)-2H-benzo[d][1,2,3]triazole], for which the Activity entry is “++ (Between 201% and 300% relative to control)”.
As for `CC(C)C(=O)Nc1ccc2cn(-c3ccc4ccccc4c3)nc2c1` [Example 2, N-(2-(naphthalen-2-yl)-2H-indazol-6-yl)isobutyramide], the entry is “++++ (Above 401% relative to control)”; as for `CC(C)C(=O)Nc1ccc2cnn(-c3ccc4ccccc4c3)c2c1` [Example 1, N-(1-(naphthalen-2-yl)-1H-indazol-6-yl)isobutyramide], “+ (Up to 200% relative to control)”.
Turning to `CCS(=O)(=O)c1ccc2cn(-c3ccc(Cl)cc3)nc2c1` [Example 3, 2-(4-chlorophenyl)-6-(ethylsulfonyl)-2H-indazole], the Activity result is “++ (Between 201% and 300% relative to control)”.
